Laboratory results as given in publication PMC12294420, “Phytochemical Characterization, Bioactivities, and Nanoparticle-Based Topical Gel Formulation Development from Four Mitragyna speciosa Varieties” (Gels, 2025).

Key:
[1] = biological target: T1, porcine pancreatic elastase (Sus scrofa, UniProt P00772); test: Suc-Ala-Ala-Ala-pNA hydrolysis, […] nm kinetic; format: biochemical; conditions: read-out: % inhibition at 1 mg/mL
T1 construct: gene CELA1; commercial native pancreatic enzyme (Sigma-Aldrich)

[2] = biological target: T2, bovine testis hyaluronidase (Bos taurus, UniProt Q2YDK3); test: turbidimetric hyaluronic acid degradation assay, […] nm; format: biochemical; conditions: read-out: % inhibition at 1 mg/mL
T2 construct: gene SPAM1; commercial native testis preparation (Sigma-Aldrich)
T2 sequence (Q2YDK3 36-553): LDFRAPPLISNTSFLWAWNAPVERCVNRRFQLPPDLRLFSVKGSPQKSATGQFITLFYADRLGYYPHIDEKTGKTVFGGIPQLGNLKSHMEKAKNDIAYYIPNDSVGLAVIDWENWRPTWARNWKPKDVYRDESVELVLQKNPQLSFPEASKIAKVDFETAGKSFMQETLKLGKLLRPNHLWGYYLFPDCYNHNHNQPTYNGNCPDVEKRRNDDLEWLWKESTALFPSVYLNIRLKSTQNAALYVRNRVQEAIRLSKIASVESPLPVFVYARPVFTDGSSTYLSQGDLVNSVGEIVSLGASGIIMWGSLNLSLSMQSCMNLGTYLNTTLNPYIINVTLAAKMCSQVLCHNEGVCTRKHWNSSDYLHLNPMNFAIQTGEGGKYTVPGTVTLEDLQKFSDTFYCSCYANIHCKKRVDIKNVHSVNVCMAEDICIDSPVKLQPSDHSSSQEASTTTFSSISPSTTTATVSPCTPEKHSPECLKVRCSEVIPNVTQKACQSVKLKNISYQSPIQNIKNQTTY

T1 sequence (P00772 27-266): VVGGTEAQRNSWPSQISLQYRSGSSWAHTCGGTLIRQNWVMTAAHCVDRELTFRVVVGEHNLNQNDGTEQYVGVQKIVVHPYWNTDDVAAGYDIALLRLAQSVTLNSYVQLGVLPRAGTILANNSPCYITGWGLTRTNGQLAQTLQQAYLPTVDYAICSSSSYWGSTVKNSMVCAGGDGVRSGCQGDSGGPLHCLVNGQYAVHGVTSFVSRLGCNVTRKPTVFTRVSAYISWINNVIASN

SMILES: CC[C@@H]1CN2CCc3c([nH]c4cccc(OC)c34)[C@@H]2C[C@@H]1/C(=C\OC)C(=O)OC [mitragynine]
- inhibition at 1000 µg/mL [1]: 54.5 ± 1.5%
- inhibition at 1000 µg/mL [2]: 83.3 ± 1.35%
